# Assay results reported in ChEMBL document CHEMBL1151734, “Cytochrome P450 2C9 type II binding studies on quinoline-4-carboxamide analogues” (J Med Chem, 2008).
# pKd, pKi: −log10 of the molar value.
# Target: T1, Cytochrome P450 2C9 (Homo sapiens, UniProt P11712)
# Test: Inhibition of reconstituted CYP2C9
# Format: ADME
# T1 sequence (P11712 whole entry): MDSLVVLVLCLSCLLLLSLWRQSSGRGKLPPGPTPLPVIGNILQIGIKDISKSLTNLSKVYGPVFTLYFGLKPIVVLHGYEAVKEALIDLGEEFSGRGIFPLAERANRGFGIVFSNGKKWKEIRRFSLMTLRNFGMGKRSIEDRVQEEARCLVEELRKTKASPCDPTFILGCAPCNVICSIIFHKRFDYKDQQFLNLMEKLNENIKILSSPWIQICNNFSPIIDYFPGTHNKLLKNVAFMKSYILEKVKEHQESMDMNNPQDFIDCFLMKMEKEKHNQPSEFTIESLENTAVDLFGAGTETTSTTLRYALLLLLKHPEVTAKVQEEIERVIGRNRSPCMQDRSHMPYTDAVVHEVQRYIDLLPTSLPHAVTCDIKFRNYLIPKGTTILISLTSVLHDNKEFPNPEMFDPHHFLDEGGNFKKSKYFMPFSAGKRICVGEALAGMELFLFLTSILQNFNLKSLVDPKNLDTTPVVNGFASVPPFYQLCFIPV
row,SMILES,pKi
1,O=C(Nc1ccc2ccccc2c1)c1cc(-c2cccnc2)nc2ccc(Cl)cc12,5.72
2,O=C(Nc1ccc2ccccc2c1)c1cc(-c2ccncc2)nc2ccc(Br)cc12,8.05
3,O=C(Nc1ccc2ccccc2c1)c1cc(-c2ccncc2)nc2ccc(Cl)cc12,7.92
4,O=C(Nc1ccc2ccccc2c1)c1cc(-c2ccncc2)nc2ccccc12,7.48
5,O=C(Nc1ccc2ccccc2c1)c1cc(-c2cccnc2)nc2ccccc12,5.94
6,O=C(Nc1ccc2ccccc2c1)c1cc(-c2cccnc2)nc2ccc(Br)cc12,< 4.42
7,O=C(Nc1cccc2ccccc12)c1cc(-c2cccnc2)nc2ccccc12,5.90
8,O=C(Nc1ccc2ccccc2c1)c1cc(-c2ccccn2)nc2ccccc12,4.97
9,O=C(c1cc(-c2cccnc2)nc2ccccc12)N1CCCCC1,5.01
10,O=C(c1cc(-c2ccncc2)nc2ccccc12)N1CCC(N2CCCC2)CC1,5.44
11,O=C(NCc1cccc2ccccc12)c1cc(-c2cccnc2)nc2ccccc12,6.82
12,O=C(NCc1cccc2ccccc12)c1cc(-c2ccccn2)nc2ccccc12,< 4.36
13,O=C(Nc1ccccc1)c1cc(-c2ccncc2)nc2ccccc12,7.00
14,O=C(Nc1ccccc1)c1cc(-c2cccnc2)nc2ccccc12,5.39
15,Cc1cc(C)c2nc(-c3ccncc3)cc(C(=O)Nc3ccc4ccccc4c3)c2c1,7.96
16,O=C(c1cc(-c2ccccn2)nc2ccccc12)N1CCC(N2CCCC2)CC1,4.12
17,O=C(c1cc(-c2ccncc2)nc2ccccc12)N1CCCCC1,5.00
18,O=C(c1cc(-c2ccccn2)nc2ccccc12)N1CCCCC1,4.63
19,O=C(Nc1ccccc1)c1cc(-c2ccccn2)nc2ccccc12,5.46
20,Cc1cc(C)c2nc(-c3ccccn3)cc(C(=O)Nc3ccc4ccccc4c3)c2c1,< 4.69
21,O=C(NCc1cccc2ccccc12)c1cc(-c2ccncc2)nc2ccccc12,6.90
22,O=C(c1cc(-c2cccnc2)nc2ccccc12)N1CCC(N2CCCC2)CC1,4.62
23,O=C(Nc1cccc2ccccc12)c1cc(-c2ccccn2)nc2ccccc12,5.88
24,Cc1cc(C)c2nc(-c3cccnc3)cc(C(=O)Nc3ccc4ccccc4c3)c2c1,5.07

# Target: T1, Cytochrome P450 2C9
# Test: Binding affinity to CYP2C9 assessed as spectral dissociation constant
row,SMILES,pKd
1,O=C(Nc1ccccc1)c1cc(-c2ccncc2)nc2ccccc12,6.49
2,O=C(NCc1cccc2ccccc12)c1cc(-c2ccncc2)nc2ccccc12,5.89

# Target: T1, Cytochrome P450 2C9
# Test: Inhibition of purified CYP2C9
row,SMILES,pKi
1,O=C(NCc1cccc2ccccc12)c1cc(-c2ccncc2)nc2ccccc12,6.95
